Measurements from ChEMBL document CHEMBL4390652, “Design, biological evaluation and X-ray crystallography of nanomolar multifunctional ligands targeting simultaneously acetylcholinesterase and glycogen synthase kinase-3” (Eur J Med Chem, 2019).

Columns and labels:
[1] = target: Tyrosine-protein kinase ABL1 (Homo sapiens) (UniProt P00519); assay: Binding affinity to wild-type human phosphorylated ABL1 (S229 to K512 residues) expressed in mammalian expression system assessed as residual binding level at 10 uM by Kinomescan method relative to control
[2] = target: NUAK family SNF1-like kinase 1 (Homo sapiens) (UniProt O60285); assay: Binding affinity to wild-type human partial length ARK5 (E25 to I332 residues) expressed in bacterial expression system assessed as residual binding level at 10 uM by Kinomescan method relative to control
[3] = target: Calcium/calmodulin-dependent protein kinase type 1B (Homo sapiens) (UniProt Q6P2M8); assay: Binding affinity to wild-type human partial length CAMK1B (W9 to A311 residues) expressed in mammalian expression system assessed as residual binding level at 10 uM by Kinomescan method relative to control
[4] = target: Cyclin-dependent kinase 9 (Homo sapiens) (UniProt P50750); assay: Binding affinity to wild-type human full length CDK9 (M1 to F372 residues) expressed in bacterial expression system assessed as residual binding level at 10 uM by Kinomescan method relative to control
[5] = target: Casein kinase I isoform gamma-2 (Homo sapiens) (UniProt P78368); assay: Binding affinity to wild-type human full length CSNK1G2 (M1 to K415 residues) expressed in bacterial expression system assessed as residual binding level at 10 uM by Kinomescan method relative to control
[6] = target: Death-associated protein kinase 2 (Homo sapiens) (UniProt Q9UIK4); assay: Binding affinity to wild-type human full length DAPK2 (M1 to S370 residues) expressed in bacterial expression system assessed as residual binding level at 10 uM by Kinomescan method relative to control
[7] = target: Serine/threonine-protein kinase DCLK1 (Homo sapiens) (UniProt O15075); assay: Binding affinity to wild-type human partial length DCAMKL1 (L270 to A662 residues) expressed in mammalian expression system assessed as residual binding level at 10 uM by Kinomescan method relative to control
[8] = target: Mitogen-activated protein kinase 3 (Homo sapiens) (UniProt P27361); assay: Binding affinity to wild-type human full length ERK1 (M1 to P379 residues) expressed in bacterial expression system assessed as residual binding level at 10 uM by Kinomescan method relative to control
[9] = system: Receptor-type tyrosine-protein kinase FLT3 (Homo sapiens), P36888 [N841I]; assay: Binding affinity to human partial length FLT3 N841I mutant (V592 to Y969 residues) expressed in bacterial expression system assessed as residual binding level at 10 uM by Kinomescan method relative to control
[10] = target: Mitogen-activated protein kinase 9 (Homo sapiens) (UniProt P45984); assay: Binding affinity to wild-type human full length JNK2 (M1 to Q382 residues) expressed in mammalian expression system assessed as residual binding level at 10 uM by Kinomescan method relative to control
[11] = system: Mast/stem cell growth factor receptor Kit (Homo sapiens), P10721 [UNDEFINED MUTATION]; assay: Binding affinity to human partial length KIT V559D/V654 double mutant (Y545 to D952 residues) expressed in bacterial expression system assessed as residual binding level at 10 uM by Kinomescan method relative to control
[12] = target: MAP kinase-activated protein kinase 2 (Homo sapiens) (UniProt P49137); assay: Binding affinity to wild-type human partial length MAPKAPK2 (V48 to D345 residues) expressed in bacterial expression system assessed as residual binding level at 10 uM by Kinomescan method relative to control
[13] = target: MAP kinase-activated protein kinase 5 (Homo sapiens) (UniProt Q8IW41); assay: Binding affinity to wild-type human partial length MAPKAPK5 (M1 to D322 residues) expressed in mammalian expression system assessed as residual binding level at 10 uM by Kinomescan method relative to control
[14] = target: Serine/threonine-protein kinase 38-like (Homo sapiens) (UniProt Q9Y2H1); assay: Binding affinity to wild-type human partial length NDR2 (N34 to E447 residues) expressed in bacterial expression system assessed as residual binding level at 10 uM by Kinomescan method relative to control
[15] = target: Phosphatidylinositol 4-phosphate 3-kinase C2 domain-containing subunit beta (Homo sapiens) (UniProt O00750); assay: Binding affinity to wild-type human partial length PIK3C2B (M1 to L1634 residues) expressed in mammalian expression system assessed as residual binding level at 10 uM by Kinomescan method relative to control
[16] = system: Phosphatidylinositol 4,5-bisphosphate 3-kinase catalytic subunit alpha isoform (Homo sapiens), P42336 [M1043I]; assay: Binding affinity to human partial length PIK3CA M1043I mutant (R108 to N1068 residues) expressed in mammalian expression system assessed as residual binding level at 10 uM by Kinomescan method relative to control
[17] = target: Phosphatidylinositol 4-phosphate 5-kinase type-1 alpha (Homo sapiens) (UniProt Q99755); assay: Binding affinity to wild-type human full length PIP5K1A (M1 to H562 residues) expressed in bacterial expression system assessed as residual binding level at 10 uM by Kinomescan method relative to control
[18] = target: Serine/threonine-protein kinase N2 (Homo sapiens) (UniProt Q16513); assay: Binding affinity to wild-type human partial length PKN2 (E634 to C984 residues) expressed in bacterial expression system assessed as residual binding level at 10 uM by Kinomescan method relative to control
[19] = target: Proto-oncogene tyrosine-protein kinase receptor Ret (Homo sapiens) (UniProt P07949); assay: Binding affinity to wild-type human partial length RET (E713 to D1014 residues) expressed in bacterial expression system assessed as residual binding level at 10 uM by Kinomescan method relative to control
[20] = target: Receptor-interacting serine/threonine-protein kinase 4 (Homo sapiens) (UniProt P57078); assay: Binding affinity to wild-type human partial length RIPK4 (M1 to V303 residues) expressed in mammalian expression system assessed as residual binding level at 10 uM by Kinomescan method relative to control
[21] = target: STE20/SPS1-related proline-alanine-rich protein kinase (Homo sapiens) (UniProt Q9UEW8); assay: Binding affinity to wild-type human partial length STK39 (P43 to I357 residues) expressed in mammalian expression system assessed as residual binding level at 10 uM by Kinomescan method relative to control
[22] = target: Mitogen-activated protein kinase kinase kinase 7 (Homo sapiens) (UniProt O43318); assay: Binding affinity to wild-type human partial length TAK1 (M1 to Q303 residues) expressed in mammalian expression system assessed as residual binding level at 10 uM by Kinomescan method relative to control
[23] = target: Phosphatidylinositol 3-kinase catalytic subunit type 3 (Homo sapiens) (UniProt Q8NEB9); assay: Binding affinity to wild-type human partial length VPS34 (S282 to H879 residues) expressed in mammalian expression system assessed as residual binding level at 10 uM by Kinomescan method relative to control
[24] = target: Serine/threonine-protein kinase WNK3 (Homo sapiens) (UniProt Q9BYP7); assay: Binding affinity to wild-type human partial length WNK3 (M1 to D434 residues) expressed in mammalian expression system assessed as residual binding level at 10 uM by Kinomescan method relative to control

Chain of Receptor-interacting serine/threonine-protein kinase 4 (Homo sapiens) (P57078 whole entry, the tested form may be a part): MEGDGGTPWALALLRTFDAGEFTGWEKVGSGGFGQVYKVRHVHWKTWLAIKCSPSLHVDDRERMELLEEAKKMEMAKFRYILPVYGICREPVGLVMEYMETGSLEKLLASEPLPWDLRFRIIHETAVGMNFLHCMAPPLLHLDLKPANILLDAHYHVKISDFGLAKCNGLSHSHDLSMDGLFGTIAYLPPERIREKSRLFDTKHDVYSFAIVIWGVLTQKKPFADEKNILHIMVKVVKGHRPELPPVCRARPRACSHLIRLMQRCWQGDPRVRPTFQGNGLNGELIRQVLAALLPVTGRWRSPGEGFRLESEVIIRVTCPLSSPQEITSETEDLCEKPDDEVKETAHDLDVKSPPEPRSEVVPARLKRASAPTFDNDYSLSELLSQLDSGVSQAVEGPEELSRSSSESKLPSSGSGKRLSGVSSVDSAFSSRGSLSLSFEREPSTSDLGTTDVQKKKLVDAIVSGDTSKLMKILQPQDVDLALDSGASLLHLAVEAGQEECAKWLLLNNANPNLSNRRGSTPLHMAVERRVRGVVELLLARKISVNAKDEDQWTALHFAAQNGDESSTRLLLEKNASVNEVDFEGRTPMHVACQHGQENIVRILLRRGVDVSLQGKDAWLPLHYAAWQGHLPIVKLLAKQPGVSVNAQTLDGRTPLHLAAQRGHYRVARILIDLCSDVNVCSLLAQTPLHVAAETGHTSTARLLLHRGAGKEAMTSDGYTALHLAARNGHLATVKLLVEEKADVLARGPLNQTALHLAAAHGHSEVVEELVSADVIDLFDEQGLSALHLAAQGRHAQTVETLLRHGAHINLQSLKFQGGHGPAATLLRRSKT
Chain of Casein kinase I isoform gamma-2 (Homo sapiens) (P78368 whole entry, looked up, the tested form may be a part, canonical isoform): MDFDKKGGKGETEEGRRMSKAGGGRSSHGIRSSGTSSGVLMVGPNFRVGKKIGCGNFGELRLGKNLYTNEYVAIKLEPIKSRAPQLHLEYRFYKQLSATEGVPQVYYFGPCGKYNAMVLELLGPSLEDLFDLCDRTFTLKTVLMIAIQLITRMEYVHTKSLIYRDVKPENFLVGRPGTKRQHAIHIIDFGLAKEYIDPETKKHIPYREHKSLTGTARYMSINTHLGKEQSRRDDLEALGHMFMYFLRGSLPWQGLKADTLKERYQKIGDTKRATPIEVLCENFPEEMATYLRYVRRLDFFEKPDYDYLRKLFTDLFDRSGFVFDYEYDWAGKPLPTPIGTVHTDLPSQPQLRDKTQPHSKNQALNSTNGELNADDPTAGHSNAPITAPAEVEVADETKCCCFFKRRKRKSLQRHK
Chain of Phosphatidylinositol 4,5-bisphosphate 3-kinase catalytic subunit alpha isoform (Homo sapiens), P42336 [M1043I] (P42336 whole entry M1043I, the tested form may be a part, canonical isoform): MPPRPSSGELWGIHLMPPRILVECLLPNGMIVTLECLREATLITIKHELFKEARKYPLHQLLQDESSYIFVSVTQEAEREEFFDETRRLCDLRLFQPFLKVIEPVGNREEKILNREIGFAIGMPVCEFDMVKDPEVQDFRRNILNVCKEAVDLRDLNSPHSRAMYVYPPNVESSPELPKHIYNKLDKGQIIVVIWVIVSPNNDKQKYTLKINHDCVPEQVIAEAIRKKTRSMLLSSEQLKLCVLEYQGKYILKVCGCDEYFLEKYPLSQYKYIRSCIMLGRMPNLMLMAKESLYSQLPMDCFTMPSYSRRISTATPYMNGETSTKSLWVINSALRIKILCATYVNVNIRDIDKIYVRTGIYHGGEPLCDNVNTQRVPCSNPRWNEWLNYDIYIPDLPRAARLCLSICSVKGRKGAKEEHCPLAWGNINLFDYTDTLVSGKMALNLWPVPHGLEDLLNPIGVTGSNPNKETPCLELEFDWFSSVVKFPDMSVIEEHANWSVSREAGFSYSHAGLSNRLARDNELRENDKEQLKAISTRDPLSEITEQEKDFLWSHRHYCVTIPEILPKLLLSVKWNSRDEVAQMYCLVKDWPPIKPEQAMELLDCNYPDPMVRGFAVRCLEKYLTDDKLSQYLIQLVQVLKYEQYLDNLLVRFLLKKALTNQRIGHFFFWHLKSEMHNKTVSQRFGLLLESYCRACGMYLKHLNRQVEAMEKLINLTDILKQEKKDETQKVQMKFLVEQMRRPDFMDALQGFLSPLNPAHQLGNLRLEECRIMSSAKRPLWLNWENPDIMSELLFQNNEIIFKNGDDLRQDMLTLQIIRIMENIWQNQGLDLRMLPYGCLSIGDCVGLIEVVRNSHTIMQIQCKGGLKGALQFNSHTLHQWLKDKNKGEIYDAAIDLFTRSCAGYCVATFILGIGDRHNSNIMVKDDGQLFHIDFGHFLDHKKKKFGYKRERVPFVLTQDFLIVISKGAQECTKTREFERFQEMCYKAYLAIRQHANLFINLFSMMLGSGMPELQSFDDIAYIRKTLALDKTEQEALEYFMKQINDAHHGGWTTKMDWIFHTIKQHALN
Chain of Mast/stem cell growth factor receptor Kit (Homo sapiens), P10721 [UNDEFINED MUTATION] (P10721 whole entry, looked up, stated change not applied, the tested form may be a part): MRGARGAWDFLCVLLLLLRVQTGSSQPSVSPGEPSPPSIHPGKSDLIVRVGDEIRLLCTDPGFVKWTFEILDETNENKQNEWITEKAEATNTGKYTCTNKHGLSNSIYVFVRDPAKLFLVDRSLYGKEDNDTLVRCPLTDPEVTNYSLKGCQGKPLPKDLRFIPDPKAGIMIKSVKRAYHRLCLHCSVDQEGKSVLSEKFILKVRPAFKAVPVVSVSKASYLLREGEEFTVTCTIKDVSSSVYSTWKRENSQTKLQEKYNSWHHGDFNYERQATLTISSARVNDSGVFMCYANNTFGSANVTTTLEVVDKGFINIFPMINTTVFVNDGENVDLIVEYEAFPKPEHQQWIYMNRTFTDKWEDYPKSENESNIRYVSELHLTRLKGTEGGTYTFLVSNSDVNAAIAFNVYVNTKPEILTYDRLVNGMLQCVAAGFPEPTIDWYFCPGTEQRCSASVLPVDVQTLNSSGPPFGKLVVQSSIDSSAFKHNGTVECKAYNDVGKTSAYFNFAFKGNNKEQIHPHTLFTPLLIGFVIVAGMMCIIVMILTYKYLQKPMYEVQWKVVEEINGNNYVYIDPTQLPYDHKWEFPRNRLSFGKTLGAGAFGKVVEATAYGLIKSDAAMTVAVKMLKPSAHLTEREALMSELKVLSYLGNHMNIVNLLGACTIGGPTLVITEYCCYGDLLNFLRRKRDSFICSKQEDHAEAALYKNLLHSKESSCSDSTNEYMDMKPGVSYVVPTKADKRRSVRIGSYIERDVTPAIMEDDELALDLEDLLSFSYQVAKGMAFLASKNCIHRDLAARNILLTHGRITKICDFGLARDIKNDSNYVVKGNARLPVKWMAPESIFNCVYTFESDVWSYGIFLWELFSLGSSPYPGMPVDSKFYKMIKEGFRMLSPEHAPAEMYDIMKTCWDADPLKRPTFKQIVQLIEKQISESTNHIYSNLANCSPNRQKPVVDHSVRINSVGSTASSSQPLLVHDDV
Chain of Phosphatidylinositol 4-phosphate 3-kinase C2 domain-containing subunit beta (Homo sapiens) (O00750 whole entry, the tested form may be a part, canonical isoform): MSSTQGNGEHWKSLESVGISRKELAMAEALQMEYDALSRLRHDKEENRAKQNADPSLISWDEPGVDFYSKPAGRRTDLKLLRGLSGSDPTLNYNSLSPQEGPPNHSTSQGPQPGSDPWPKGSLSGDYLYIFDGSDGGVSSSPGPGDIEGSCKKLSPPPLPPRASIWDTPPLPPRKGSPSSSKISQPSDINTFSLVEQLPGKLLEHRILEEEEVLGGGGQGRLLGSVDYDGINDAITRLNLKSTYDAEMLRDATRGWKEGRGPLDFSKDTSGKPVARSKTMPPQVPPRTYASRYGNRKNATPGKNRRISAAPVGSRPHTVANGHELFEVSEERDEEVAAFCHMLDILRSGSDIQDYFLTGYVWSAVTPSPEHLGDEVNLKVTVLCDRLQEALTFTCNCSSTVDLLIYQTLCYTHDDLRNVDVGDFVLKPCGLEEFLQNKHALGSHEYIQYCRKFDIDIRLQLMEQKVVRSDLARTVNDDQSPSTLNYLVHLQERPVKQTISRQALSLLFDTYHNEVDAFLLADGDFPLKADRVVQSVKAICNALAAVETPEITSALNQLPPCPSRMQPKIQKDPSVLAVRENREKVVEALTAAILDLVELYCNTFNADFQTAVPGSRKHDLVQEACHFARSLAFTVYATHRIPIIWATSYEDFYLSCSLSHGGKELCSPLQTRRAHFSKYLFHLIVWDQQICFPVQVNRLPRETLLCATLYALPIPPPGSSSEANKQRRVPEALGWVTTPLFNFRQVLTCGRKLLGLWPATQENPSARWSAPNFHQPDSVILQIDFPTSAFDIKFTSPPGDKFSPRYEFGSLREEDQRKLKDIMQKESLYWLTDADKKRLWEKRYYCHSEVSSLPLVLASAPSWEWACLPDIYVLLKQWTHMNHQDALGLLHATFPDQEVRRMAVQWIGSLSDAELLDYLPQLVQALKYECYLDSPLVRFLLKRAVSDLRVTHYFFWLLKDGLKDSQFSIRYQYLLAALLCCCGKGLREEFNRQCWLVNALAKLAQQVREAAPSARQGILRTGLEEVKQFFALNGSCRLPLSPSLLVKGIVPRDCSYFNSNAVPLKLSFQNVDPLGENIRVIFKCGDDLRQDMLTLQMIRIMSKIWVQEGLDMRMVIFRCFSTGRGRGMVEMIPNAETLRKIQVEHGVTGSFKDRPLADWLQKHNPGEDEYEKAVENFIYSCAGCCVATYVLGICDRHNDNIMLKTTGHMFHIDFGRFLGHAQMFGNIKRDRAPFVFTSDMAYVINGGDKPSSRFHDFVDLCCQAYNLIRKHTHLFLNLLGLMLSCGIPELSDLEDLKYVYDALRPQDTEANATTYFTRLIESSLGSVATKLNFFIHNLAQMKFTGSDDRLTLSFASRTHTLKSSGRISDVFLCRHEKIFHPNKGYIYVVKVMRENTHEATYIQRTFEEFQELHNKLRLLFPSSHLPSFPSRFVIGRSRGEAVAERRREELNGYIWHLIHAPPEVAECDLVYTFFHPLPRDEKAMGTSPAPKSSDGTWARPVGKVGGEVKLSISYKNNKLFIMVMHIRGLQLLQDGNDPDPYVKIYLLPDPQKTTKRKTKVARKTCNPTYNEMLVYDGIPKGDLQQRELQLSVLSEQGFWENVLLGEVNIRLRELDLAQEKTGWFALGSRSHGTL

Q: Which results are given for `O=C(Nc1cc(-c2cn(CCNc3c4c(nc5ccccc35)CCCC4)nn2)ccn1)Nc1cccc2c1C1CCCCN1C2=O` (racemic)?
A: Activity [1]: 0.6%; Activity [2]: 0.85%; Activity [3]: 100%; Activity [4]: 3.8%; Activity [5]: 68%; Activity [6]: 72%; Activity [7]: 82%; Activity [8]: 57%; Activity [9]: 0%; Activity [10]: 2.6%; Activity [11]: 38%; Activity [12]: 100%; Activity [13]: 42%; Activity [14]: 99%; Activity [15]: 51%; Activity [16]: 100%; Activity [17]: 22%; Activity [18]: 4.8%; Activity [19]: 39%; Activity [20]: 30%; Activity [21]: 100%; Activity [22]: 1.6%; Activity [23]: 3.7%; Activity [24]: 100%
